In article PMC9269301, “Phytochemical Analysis, Antioxidant, Antimicrobial, and Cytotoxic Activity of Different Extracts of Xanthoparmelia stenophylla Lichen from Stara Planina, Serbia” (Plants, 2022):
Converted amounts (≈) assume the structure as drawn. Like-named read-outs stand apart in the source and are kept apart here.

How the values were obtained:
P. aeruginosa biofilm = experiment: Antibiofilm activity (biofilm formation, crystal violet); assay type: cell-based, Pseudomonas aeruginosa; conditions: 48 h; for IC50: Pseudomonas aeruginosa, read-out: BIC50 (biofilm inhibitory concentration, 50% reduction of biofilm coverage)
Method: (§1) The ability of S. aureus ATCC 6538 and P. aeruginosa to form biofilms was assayed as described by O’Toole et al. with some modifications. Briefly, the tissue culture of 96-well microtiter plates (Sarstedt, Germany) were prepared by dispensing 100 µL of nutrient broth (i.e., Mueller–Hinton broth) into each well. Ten microliters of spore suspension (10^8 colony-forming units (CFU)/mL) was added into each row. […] Biofilms formed by adherent cells in 96-well microtiter plates were stained with crystal violet (0.1% w/v; Fluka AG, Buchs, Switzerland) and incubated at room temperature for 20 min. Excess stain was rinsed off by thorough washing with deionized water and then with […] of 96% ethanol. Optical densities (ODs) of stained adherent bacteria were determined with an enzyme-linked immunosorbent assay (ELISA) plate reader (RT-2100C, Rayto, Shenzhen, China) at a 630 nm wavelength. Only broth served as a control to check sterility and nonspecific binding of media. To compensate for background absorbance, OD readings from sterile medium, fixative, and dye were averaged and subtracted from all test values. All tests were performed in duplicate. The tissue culture of 96-well microtiter plates (Sarstedt, Nümbrecht, Germany) were prepared by dispensing 100 µL of nutrient broth (i.e., Mueller–Hinton broth) into each well. From the stock solution of the tested extracts or components (concentration: 20 mg/mL), 100 µL was added to the first row of the microtiter plate. Two-fold serial dilutions were then made using a multichannel pipette, following which 10 µL of fresh bacterial suspension was added to each well. The inoculated microtiter plates were incubated at 37 °C for 48 h. After incubation, the content of each well was gently removed by tapping the microtiter plates. […] Biofilms formed by adherent cells in 96-well microtiter plates were stained with crystal violet (0.1% w/v; Fluka AG, Switzerland) and incubated at room temperature for 20 min. Excess stain was rinsed off by thorough washing with deionized water and then with […] densities (ODs) of stained adherent bacteria were determined with an enzyme-linked immunosorbent assay (ELISA) plate reader at a 630 nm wavelength. […] Only broth or broth with extracts served as a control to check the sterility and nonspecific binding of media. To compensate for background absorbance, OD readings from sterile medium, extracts, fixative, and dye were averaged and subtracted from all test values. All tests were performed in duplicate.

[1] = test system: S. aureus ATCC 6538 biofilm; experiment: as above; assay type: cell-based, Staphylococcus aureus; conditions: for IC50: Staphylococcus aureus, read-out: BIC50 (biofilm inhibitory concentration, 50% reduction of biofilm coverage)
Method: as §1

C. albicans (isolate) = experiment: Microdilution with resazurin, antifungal; assay type: cell-based, Candida albicans; conditions: Candida albicans, antimycotics
Method: (§2) The tested methanol, acetone, and n-hexane extracts, as well as the component (usnic acid) of X. stenophylla, were dissolved in 10% dimethyl sulfoxide (DMSO) and then diluted into the nutrient liquid medium. DMSO was obtained from Acros Organics (Fair Lawn, NJ, USA). Resazurin was obtained from Alfa Aesar GmbH & Co. (KG, Karlsruhe, Germany).
(§3) The antimicrobial activity of the extracts and components was tested against 19 microorganisms. The experiment involved 15 strains of bacteria (i.e., 6 standard strains: Staphylococcus aureus ATCC 6538, Bacillus subtilis ATCC 6633, Proteus mirabilis ATCC 12453, Pseudomonas aeruginosa ATCC 27853, Klebsiella pneumoniae ATCC 70063, and Escherichia coli ATCC 25922; 9 isolates: Staphylococcus aureus, Escherichia coli, Salmonella enterica, Salmonella Typhimurium, Proteus mirabilis, Klebsiella pneumoniae, Pseudomonas aeruginosa, Bacillus subtilis, and Bacillus cereus). In addition, four fungal strains (i.e., two standard strains: Candida albicans ATCC 10231 and Aspergillus niger ATCC 16888; two isolates: Saccharomyces cerevisiae and Candida albicans) were tested. All isolates were a generous gift from the Institute of Public Health, Kragujevac. The other microorganisms were provided from the collection held by the Microbiology Laboratory Faculty of Science, University of Kragujevac.
(§4) The bacterial suspensions were prepared by the direct colony method. The turbidity of the initial suspension was adjusted using a densitometer (DEN-1, BioSan, Riga, Latvia). When adjusted to the turbidity of the 0.5 McFarland’s standard (Andrews, 2005) the bacteria suspension contained approximately 10^8 colony-forming units (CFU)/mL, and the suspension of yeast contained 10^6 CFU/mL; 1:100 dilutions of the initial suspension were additionally prepared in sterile 0.85% saline. The suspensions of fungal spores were prepared by gentle stripping of spores from slopes with growing mycelia. The resulting suspensions were 1:1000 diluted in sterile 0.85% saline.
(§5) Antimicrobial activity was tested by determining the minimum inhibitory concentrations (MICs) and minimum microbicidal concentrations (MBCs) using the microdilution plate method with resazurin [56]. The 96-well plates were prepared by dispensing 100 μL of Mueller–Hinton broth for bacteria and Sabouard broth for fungi into each well. A 10 μL aliquot from the stock solution of the tested extract or component was added to the first row of the plate. Then, two-fold serial dilutions were performed using a multichannel pipette. The obtained concentration range was from 10 to 0.08 mg/mL. The method is described in detail in [76].
(§6) Each test included growth control and sterility control.
(§7) Minimum microbicidal concentrations were determined by plating 10 μL of samples from wells where no indicator color change or no mycelia growth was recorded on a nutrient agar medium. At the end of the incubation period, the lowest concentration with no growth (no colony) was defined as the minimum microbicidal concentration.

C. albicans ATCC 10231 = experiment: Microdilution with resazurin, antifungal; assay type: cell-based, Candida albicans; conditions: Candida albicans, ATCC10231, antimycotics
Method: as §2, §3, §4, §5, §6, §7

A. niger ATCC 16888 = experiment: Microdilution with resazurin, antifungal; assay type: cell-based, Aspergillus niger; conditions: Aspergillus niger, ATCC16888, antimycotics
Method: as §2, §3, §4, §5, §6, §7

[2] = test system: MRC-5 cells (nontransformed human lung fibroblast); experiment: MTT assay; assay type: cell-based; conditions: for GI50 / IC50: Homo sapiens; for GI50: MRC5, read-out: GI50 (50% growth inhibition); for IC50: MRC5, read-out: IC50
[3] = test system: HeLa cells (cervical adenocarcinoma); experiment: MTT assay; assay type: cell-based, human; conditions: for TGI (total growth inhibition) / GI50 / IC50: HeLa; for GI50 / IC50: Homo sapiens; for GI50: read-out: GI50 (50% growth inhibition); for IC50: read-out: IC50; for SI (selectivity index): IC50 MRC-5 / IC50 HeLa
[4] = test system: HCT 116 cells (colon cancer); experiment: MTT assay; assay type: cell-based, human; conditions: for GI50 / IC50: Homo sapiens; for GI50: read-out: GI50 (50% growth inhibition); for IC50: read-out: IC50
[5] = S. aureus ATCC 6538, 37 °C, 48 h

Q: `CO/N=C(\C(=O)N[C@@H]1C(=O)N2C(C(=O)O)=C(CSc3nc(=O)c(=O)[nH]n3C)CS[C@H]12)c1csc(N)n1` [CT, ceftriaxone] was tested. Which “BIC90 (biofilm inhibitory concentration, 90% reduction of biofilm coverage)” value (P. aeruginosa biofilm; P. aeruginosa, 37 °C) did it give?
A: Its value is greater than 1000 µg/mL.

Q: What about the IC50 (P. aeruginosa biofilm; P. aeruginosa, 37 °C) of the same compound?
A: The IC50 was 116 µg/mL (≈ 210 µM).

Q: And the “BIC90 (biofilm inhibitory concentration, 90% reduction of biofilm coverage)” value [1, 5]?
A: The value was greater than 1000 µg/mL.

Q: And the IC50 ([1]; ATCC6538, S. aureus ATCC 6538, 37 °C, 48 h)?
A: The IC50 was 475 µg/mL (≈ 857 µM).

Q: For `C[C@@H]1[C@H](O)[C@@H](C)/C=C/C=C/C=C/C=C/C=C/C=C/C=C/[C@H](O[C@@H]2O[C@H](C)[C@@H](O)[C@H](N)[C@@H]2O)C[C@@H]2O[C@](O)(C[C@@H](O)C[C@@H](O)[C@H](O)CC[C@@H](O)C[C@@H](O)CC(=O)O[C@H]1C)C[C@H](O)[C@H]2C(=O)O` [AB, amphotericin B], which MFC (C. albicans (isolate); read-out: MFC) is on record?
A: The MFC was 1.95 µg/mL (≈ 2.11 µM).

Q: And the MIC (C. albicans (isolate); read-out: MIC)?
A: Its MIC is 0.98 µg/mL (≈ 1.06 µM).

Q: What about the MFC (C. albicans ATCC 10231; read-out: MFC) of the same compound?
A: Its MFC is 1.95 µg/mL (≈ 2.11 µM).

Q: What about the MIC (C. albicans ATCC 10231; read-out: MIC) of the same compound?
A: The MIC was 0.49 µg/mL (≈ 0.53 µM).

Q: And the MFC (A. niger ATCC 16888; read-out: MFC)?
A: Its MFC is 0.98 µg/mL (≈ 1.06 µM).

Q: What about the MIC (A. niger ATCC 16888; read-out: MIC) of the same compound?
A: Its MIC is 0.98 µg/mL (≈ 1.06 µM).

Q: `CN[C@H](CC(C)C)C(=O)N[C@H]1C(=O)N[C@@H](CC(N)=O)C(=O)N[C@H]2C(=O)N[C@H]3C(=O)N[C@H](C(=O)N[C@H](C(=O)O)c4cc(O)cc(O)c4-c4cc3ccc4O)[C@H](O)c3ccc(c(Cl)c3)Oc3cc2cc(c3O[C@@H]2O[C@H](CO)[C@@H](O)[C@H](O)[C@H]2O[C@H]2C[C@](C)(N)[C@H](O)[C@H](C)O2)Oc2ccc(cc2Cl)[C@H]1O` [VM, vancomycin] was tested. Which “BIC90 (biofilm inhibitory concentration, 90% reduction of biofilm coverage)” value (P. aeruginosa biofilm; P. aeruginosa, 37 °C) did it give?
A: The value was greater than 1000 µg/mL.

Q: What about the IC50 (P. aeruginosa biofilm) of the same compound?
A: The IC50 was 734 µg/mL (≈ 506 µM).

Q: And the “BIC90 (biofilm inhibitory concentration, 90% reduction of biofilm coverage)” value [1, 5]?
A: The value was greater than 1000 µg/mL.

Q: What about the IC50 ([1]; ATCC6538, 48 h) of the same compound?
A: The IC50 was 62.6 µg/mL (≈ 43.2 µM).

Q: Which results are given for `COc1cccc2c1C(=O)c1c(O)c3c(c(O)c1C2=O)C[C@@](O)(C(=O)CO)C[C@@H]3O[C@H]1C[C@H](N)[C@H](O)[C@H](C)O1` [DOX, doxorubicin]?
A: GI50 ([2]; MRC-5, 24 h): < 0.1 µg/mL; GI50 ([2]; MRC-5, 48 h): < 0.1 µg/mL; GI50 ([2]; MRC-5, 72 h): < 0.1 µg/mL; IC50 ([2]; MRC-5, 24 h): 86.9 ± 17.2 µg/mL (≈ 160 µM); IC50 ([2]; MRC-5, 48 h): 0.96 ± 0.1 µg/mL (≈ 1.77 µM); IC50 ([2]; MRC-5, 72 h): 0.1 ± 0.05 µg/mL (≈ 0.184 µM); TGI (total growth inhibition) ([2]; MRC-5, 24 h): 54.71 ± 4.65 µg/mL (≈ 101 µM); TGI (total growth inhibition) ([2]; MRC-5, 48 h): 6.34 ± 2.90 µg/mL (≈ 11.7 µM); TGI (total growth inhibition) ([2]; MRC-5, 72 h): 2.35 ± 0.35 µg/mL (≈ 4.32 µM); TGI (total growth inhibition) ([3]; 24 h): <0.1 µg/mL; TGI (total growth inhibition) ([3]; 48 h): <0.1 µg/mL; TGI (total growth inhibition) ([3]; 72 h): <0.1 µg/mL; GI50 ([3]; 24 h): < 0.1 µg/mL; IC50 ([3]; 24 h): 22.9 ± 3.05 µg/mL (≈ 42.2 µM); GI50 ([3]; 48 h): < 0.1 µg/mL; IC50 ([3]; 48 h): 1.04 ± 0.06 µg/mL (≈ 1.91 µM); GI50 ([3]; 72 h): < 0.1 µg/mL; IC50 ([3]; 72 h): 0.14 ± 0.01 µg/mL (≈ 0.258 µM); SI (selectivity index) ([3]; 24 h): 3.8; SI (selectivity index) ([3]; 48 h): 0.92; SI (selectivity index) ([3]; 72 h): 0.71; TGI (total growth inhibition) ([4]; HCT 116, 24 h): <0.1 µg/mL; TGI (total growth inhibition) ([4]; HCT 116, 48 h): <0.1 µg/mL; TGI (total growth inhibition) ([4]; HCT 116, 72 h): <0.1 µg/mL; GI50 ([4]; HCT 116, 24 h): < 0.1 µg/mL; GI50 ([4]; HCT 116, 48 h): < 0.1 µg/mL; GI50 ([4]; HCT 116, 72 h): < 0.1 µg/mL; IC50 ([4]; HCT 116, 24 h): 153 ± 9.69 µg/mL (≈ 281 µM); IC50 ([4]; HCT 116, 72 h): 0.41 ± 0.16 µg/mL (≈ 0.754 µM); SI (selectivity index) ([4]; IC50 MRC-5 / IC50 HCT 116, 24 h): 0.57; SI (selectivity index) ([4]; IC50 MRC-5 / IC50 HCT 116, 72 h): 0.24
